The subject of data set [1] is HCT116 cell line. In words: In vitro antiproliferative activity, MTT assay, HCT116. It counts as cell-based. The note with it: Homo sapiens, HCT-116, 48 h. As for the experimental part:
(§1) HCT116, MCF-7 and B16 cell lines were plated on 96-well plates at a density of 5000 per well and incubated overnight. […] After 48 h, 0.5% MTT (Amresco, Solon, OH, USA) solution was added to each well, and further incubation for 4 h, then cells were centrifuged at 2500 rpm for 15 min and removed from the culture medium. And add 150 μL DMSO to dissolve the formazan. After mixing for 5 min, optical density was detected at 570 nm on a microplate reader (Thermo, Waltham, MA, USA).

For data set [2], the system named is MCF-7 cell line. In words: In vitro antiproliferative activity, MTT assay, MCF-7. It counts as cell-based. The note with it: Homo sapiens, MCF7, 48 h. Here is the method:
as §1
Background: Tetrazolium dyes change colour on reduction, which living cells bring about.

Data set [3] has as its system B16 cell line. Briefly: In vitro antiproliferative activity, MTT assay, B16. It counts as cell-based. The settings on record: Mus musculus, 48 h. As for the experimental part: as §1
Data set [4] addresses EGFR (Homo sapiens, UniProt P00533). In words: EGFR inhibitory assay (caliper mobility shift assay).
Protocol: (§2) Each of these compounds was dissolved in DMSO at 10 mM, diluted to 50× of the final desired highest inhibitor concentration in reaction by 100% DMSO, and 100 μL of each dilution was added to one well on 96-well storage plate, and diluted by transferring 10 μL to 90 μL of 100% DMSO in the next well. Besides, 100 μL of 100% DMSO was added to two empty wells for no compound control and no enzyme control in the same 96-well plate respectively. The plate was marked as source plate. 10 μL of each compound was transferred from the source plate to a new 96-well plate, which was marked as the intermediate plate. Next, 90 μL of 1× kinase base buffer was added to each well of the intermediate plate, and mixed by shaking vigorously for 10 min. A total of 5 μL of each well from the 96-well intermediate plate was transferred to a 384-well plate in duplicate.
(§3) Kinase reaction: kinase in 1× kinase base buffer, FAM-labeled peptide and ATP in the 1× kinase base buffer were added, then 10 μL of 2.5× enzyme solution was added to each well of the 384-well assay plate. After incubating at room temperature for 10 min, 10 μL of 2.5× peptide solution was added to each well of the 384-well assay plate. […] Finally, the kinase reactions were quenched with 25 μL of EDTA and the plates were washed. The dates were collected and converted with the caliper program.
In data set [5] the target is VEGFR-2 (Homo sapiens, UniProt P35968). Briefly: VEGFR-2 inhibitory assay (caliper mobility shift assay).
VEGFR-2, sequence (P35968 20-1356): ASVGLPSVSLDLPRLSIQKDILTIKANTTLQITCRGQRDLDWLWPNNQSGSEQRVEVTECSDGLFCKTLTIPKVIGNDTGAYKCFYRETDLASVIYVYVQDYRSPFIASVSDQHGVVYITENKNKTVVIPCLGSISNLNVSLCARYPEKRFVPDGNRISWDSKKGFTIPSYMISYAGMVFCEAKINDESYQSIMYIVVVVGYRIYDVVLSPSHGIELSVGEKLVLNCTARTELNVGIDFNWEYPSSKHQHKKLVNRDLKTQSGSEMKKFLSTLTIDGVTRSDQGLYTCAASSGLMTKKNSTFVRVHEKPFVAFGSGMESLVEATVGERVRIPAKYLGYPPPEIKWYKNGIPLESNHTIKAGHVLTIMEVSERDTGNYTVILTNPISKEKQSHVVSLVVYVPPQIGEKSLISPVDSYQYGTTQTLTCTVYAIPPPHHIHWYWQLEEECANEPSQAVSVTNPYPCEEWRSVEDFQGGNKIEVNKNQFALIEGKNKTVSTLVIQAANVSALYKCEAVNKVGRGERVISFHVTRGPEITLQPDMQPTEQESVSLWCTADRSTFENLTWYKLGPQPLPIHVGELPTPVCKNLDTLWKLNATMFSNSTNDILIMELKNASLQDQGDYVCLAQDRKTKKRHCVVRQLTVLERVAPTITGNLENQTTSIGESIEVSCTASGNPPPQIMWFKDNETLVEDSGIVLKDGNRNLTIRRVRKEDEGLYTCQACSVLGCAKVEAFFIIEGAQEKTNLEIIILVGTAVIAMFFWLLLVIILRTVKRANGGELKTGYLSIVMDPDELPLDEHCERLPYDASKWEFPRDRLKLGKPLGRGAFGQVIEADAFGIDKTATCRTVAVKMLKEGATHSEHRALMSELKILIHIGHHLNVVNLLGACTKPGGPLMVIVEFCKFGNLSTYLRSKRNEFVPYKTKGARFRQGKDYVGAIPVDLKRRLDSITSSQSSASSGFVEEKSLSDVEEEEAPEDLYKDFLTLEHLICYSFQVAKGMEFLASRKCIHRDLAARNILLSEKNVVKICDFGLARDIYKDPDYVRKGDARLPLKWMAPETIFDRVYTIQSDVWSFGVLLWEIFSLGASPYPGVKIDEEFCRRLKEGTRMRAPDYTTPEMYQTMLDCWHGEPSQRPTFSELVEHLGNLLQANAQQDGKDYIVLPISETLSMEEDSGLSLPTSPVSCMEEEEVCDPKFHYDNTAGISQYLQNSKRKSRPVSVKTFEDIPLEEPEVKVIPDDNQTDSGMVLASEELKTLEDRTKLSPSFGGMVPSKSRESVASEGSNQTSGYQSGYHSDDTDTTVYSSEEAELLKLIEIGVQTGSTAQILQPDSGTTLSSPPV
Protocol: as §2, §3

Each structure is given as a SMILES string. Some results are limits rather than exact numbers.

EGFR, sequence (P00533 25-1210): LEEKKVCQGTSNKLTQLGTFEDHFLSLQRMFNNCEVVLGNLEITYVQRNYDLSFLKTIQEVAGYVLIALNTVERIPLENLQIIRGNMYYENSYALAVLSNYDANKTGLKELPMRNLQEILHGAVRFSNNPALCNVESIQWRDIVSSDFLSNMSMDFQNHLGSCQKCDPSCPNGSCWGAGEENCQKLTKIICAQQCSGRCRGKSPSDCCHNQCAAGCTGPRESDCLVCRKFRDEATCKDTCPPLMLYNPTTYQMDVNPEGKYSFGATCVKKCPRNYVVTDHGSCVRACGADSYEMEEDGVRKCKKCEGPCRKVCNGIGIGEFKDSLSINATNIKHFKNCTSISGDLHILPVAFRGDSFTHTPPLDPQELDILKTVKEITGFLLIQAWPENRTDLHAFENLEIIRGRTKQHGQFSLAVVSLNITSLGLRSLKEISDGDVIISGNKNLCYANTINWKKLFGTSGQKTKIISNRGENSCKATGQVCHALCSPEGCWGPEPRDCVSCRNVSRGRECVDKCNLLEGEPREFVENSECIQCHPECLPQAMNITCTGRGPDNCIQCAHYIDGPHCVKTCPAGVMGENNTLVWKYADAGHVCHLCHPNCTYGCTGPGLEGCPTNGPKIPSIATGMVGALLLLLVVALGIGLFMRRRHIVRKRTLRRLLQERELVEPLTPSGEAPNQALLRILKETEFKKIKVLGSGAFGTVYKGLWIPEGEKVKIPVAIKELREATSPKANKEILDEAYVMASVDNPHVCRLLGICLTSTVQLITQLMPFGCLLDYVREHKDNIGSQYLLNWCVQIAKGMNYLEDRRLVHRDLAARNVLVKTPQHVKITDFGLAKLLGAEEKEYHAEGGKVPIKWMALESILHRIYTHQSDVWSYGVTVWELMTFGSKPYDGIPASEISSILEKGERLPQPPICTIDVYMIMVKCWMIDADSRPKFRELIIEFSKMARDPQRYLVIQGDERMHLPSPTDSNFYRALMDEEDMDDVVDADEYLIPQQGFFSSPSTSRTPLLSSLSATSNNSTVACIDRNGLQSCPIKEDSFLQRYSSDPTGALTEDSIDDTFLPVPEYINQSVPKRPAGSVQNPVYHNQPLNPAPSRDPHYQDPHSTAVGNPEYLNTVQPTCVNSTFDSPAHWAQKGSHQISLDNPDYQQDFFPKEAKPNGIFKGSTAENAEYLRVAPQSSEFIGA

In the case of `COc1cc2ncnc(Oc3cccc(NC(=S)Nc4ccc(F)c(C(F)(F)F)c4)c3)c2cc1OC` [Compound 10a, 1-[3-(6,7-Dimethoxyquinazolin-4-yloxy)phenyl]-3-(4-fluoro-3-trifluoromethylphenyl)thiourea], the melting point is 130.5 to 133 °C. Half-maximal inhibition in data set [1] (IC50) was put at 37.4 µM. Moreover, the IC50 in data set [2] was 38.1 µM. In data set [3], this compound had an IC50 of 16.9 µM. Also, in data set [4], the half-maximal inhibitory concentration (IC50) came out at 0.04 µM. Also, the IC50 in data set [5] amounted to 0.19 µM.

On to `COc1cc2ncnc(Oc3cccc(NC(=S)Nc4ccc(Br)c(C(F)(F)F)c4)c3)c2cc1OC` [Compound 10c, 1-(4-Bromo-3-trifluoromethylphenyl)-3-[3-(6,7-dimethoxyquinazolin-4-yloxy)phenyl]thiourea], for which the IC50 in data set [1] was 10 µM; in data set [2], 22.4 µM; in data set [3], 9.68 µM; in data set [4], 0.05 µM; in data set [5], 0.18 µM.

With `COc1cc2ncnc(Oc3cccc(NC(=S)Nc4cc(C(F)(F)F)cc(C(F)(F)F)c4)c3)c2cc1OC` [Compound 10d, 1-(3,5-Ditrifluoromethylphenyl)-3-[3-(6,7-dimethoxyquinazolin-4-yloxy)phenyl]thiourea], the melting point is 122.8 to 125.6 °C. This compound also showed a half-inhibitory concentration (IC50) in data set [1] of 15 µM. This compound returned an IC50 in data set [2] of 18.8 µM. 8.49 µM corresponded to half-maximal inhibition in data set [3] (IC50).

As for `COc1cc2ncnc(Oc3cccc(NC(=S)Nc4cccc(C(F)(F)F)c4)c3)c2cc1OC` [Compound 10e, 1-(3-Trifluoromethylphenyl)-3-[3-(6,7-dimethoxyquinazolin-4-yloxy)phenyl]thiourea], the melting point lay within 147.5 to 149.6 °C. Half-maximal inhibition in data set [1] (IC50) required 12.2 µM. For the same compound, the 50% inhibitory concentration (IC50) in data set [2] turned out to be 13.3 µM. Moreover, in data set [3], the half-maximal inhibitory concentration (IC50) was 14.8 µM. In addition, the IC50 in data set [4] was 0.14 µM. Further, the IC50 in data set [5] stood at 0.35 µM.

Compound `COc1cc2ncnc(Oc3cccc(NC(=S)Nc4ccc(OC(F)(F)F)cc4)c3)c2cc1OC` [Compound 10f, 1-(4-Trifluoromethoxyphenyl)-3-[3-(6,7-dimethoxyquinazolin-4-yloxy)phenyl]thiourea] yielded a melting point of 171.5 to 174 °C. The compound also registered an IC50 in data set [1] of 58.6 µM. This compound came in with an IC50 in data set [2] of 18.8 µM. This compound yielded an IC50 in data set [3] of 54 µM. Further, the IC50 in data set [4] was greater than 10 µM. The IC50 in data set [5] was greater than 10 µM.

`COc1cc2ncnc(Oc3cccc(NC(=S)Nc4ccc(Cl)cc4Cl)c3)c2cc1OC` [Compound 10g, 1-(2,4-Dichlorophenyl)-3-[3-(6,7-dimethoxyquinazolin-4-yloxy)phenyl]thiourea] returned a melting point of 187.4 to 188.2 °C. For the same compound, in data set [1], the IC50 was 19.8 µM. The compound further displayed an IC50 in data set [2] of 17.1 µM. In data set [3], half-maximal inhibition (IC50) was put at 24.5 µM. Besides, in data set [4], the IC50 was determined as 7.71 µM. Also, in data set [5], the concentration for half-maximal inhibition (IC50) is greater than 10 µM.

Compound `COc1cc2ncnc(Oc3cccc(NC(=S)Nc4ccc(F)c(F)c4)c3)c2cc1OC` [Compound 10h, 1-(3,4-Difluorophenyl)-3-[3-(6,7-dimethoxyquinazolin-4-yloxy)phenyl]thiourea] registered a melting point of 181.3 to 184.1 °C. Also, the IC50 in data set [1] was found to be 49.5 µM. In data set [2], this compound registered an IC50 of 16 µM. In addition, the 50% inhibitory concentration (IC50) in data set [3] was determined as 19.4 µM. For the same compound, in data set [4], the IC50 came to 4.88 µM. Besides, the IC50 in data set [5] worked out at 7.06 µM.

As for `COc1cc2ncnc(Oc3cccc(NC(=S)Nc4ccc(Cl)cc4)c3)c2cc1OC` [Compound 10i, 1-(4-Chlorophenyl)-3-[3-(6,7-dimethoxyquinazolin-4-yloxy)phenyl]thiourea], the melting point is 198.3 to 201 °C. Further, in data set [1], the half-maximal inhibitory concentration (IC50) is greater than 100 µM. In data set [2], this compound gave an IC50 of 22.1 µM. Moreover, in data set [3], the half-inhibitory concentration (IC50) was 27.4 µM. Further, the half-maximal inhibitory concentration (IC50) in data set [4] was found to be 4.17 µM. In addition, the 50% inhibitory concentration (IC50) in data set [5] is greater than 10 µM.

`COc1cc2ncnc(Oc3cccc(NC(=S)Nc4ccc(F)cc4)c3)c2cc1OC` [Compound 10j, 1-(4-Fluorophenyl)-3-[3-(6,7-dimethoxyquinazolin-4-yloxy)phenyl]thiourea]: the melting point fell in the range of 168.5 to 170 °C. Moreover, in data set [1], the midpoint of inhibition, the IC50, lay at 89.7 µM. For the same compound, the half-inhibitory concentration (IC50) in data set [2] amounted to 23.6 µM. In data set [3], this compound returned an IC50 of 34.1 µM. Further, the concentration for half-maximal inhibition (IC50) in data set [4] was 5.9 µM. For the same compound, in data set [5], the 50% inhibitory concentration (IC50) is 7.11 µM.

For the compound `COc1cc2ncnc(Oc3cccc(NC(=S)Nc4ccc(C)cc4)c3)c2cc1OC` [Compound 10k, 1-p-tolyl-3-[3-(6,7-dimethoxyquinazolin-4-yloxy)phenyl]thiourea], the melting point is 138.4 to 140 °C. The 50% inhibitory concentration (IC50) in data set [1] was greater than 100 µM. This compound came in with an IC50 in data set [2] of 26.5 µM. In data set [3], this compound returned an IC50 greater than 100 µM. Also, in data set [4], the IC50 is greater than 10 µM. The IC50 in data set [5] is greater than 10 µM.

In the case of `COc1cc2ncnc(Sc3cccc(NC(=S)Nc4ccc(F)c(C(F)(F)F)c4)c3)c2cc1OC` [Compound 10l, 1-[3-(6,7-Dimethoxyquinazolin-4-ylsulfanyl)phenyl]-3-(4-fluoro-3-trifluoromethylphenyl) thiourea], the melting point was in the range of 128.4 to 130 °C. In addition, the IC50 in data set [1] was found to be 8.79 µM. The 50% inhibitory concentration (IC50) in data set [2] was found to be 25 µM. In data set [3], this compound gave a concentration for half-maximal inhibition (IC50) of 9.33 µM.

The compound `COc1cc2ncnc(Sc3cccc(NC(=S)Nc4ccc(OC(F)(F)F)cc4)c3)c2cc1OC` [Compound 10n, 1-(4-Trifluoromethoxyphenyl)-3-[3-(6,7-dimethoxyquinazolin-4-ylsulfanyl)phenyl]thiourea] displayed a melting point of 138 to 139.3 °C. The compound further had an IC50 in data set [1] of 64.5 µM. Also, the 50% inhibitory concentration (IC50) in data set [2] is 32.4 µM. In addition, inhibition in data set [3] was half-maximal at 68.4 µM (IC50). The IC50 in data set [4] is greater than 10 µM. In data set [5], the concentration for half-maximal inhibition (IC50) was greater than 10 µM.

Turning to `COc1cc2ncnc(Sc3cccc(NC(=S)Nc4cc(C(F)(F)F)cc(C(F)(F)F)c4)c3)c2cc1OC` [Compound 10o, 1-(3,5-Ditrifluoromethylphenyl)-3-[3-(6,7-dimethoxyquinazolin-4-ylsulfanyl)phenyl]thiourea], the melting point was in the range of 168.2 to 171 °C. The same compound gave an IC50 in data set [1] of 9.57 µM. This compound had an IC50 in data set [2] of 19 µM. Besides, the IC50 in data set [3] came out at 12.2 µM. For the same compound, the IC50 in data set [4] was 0.02 µM. In addition, in data set [5], the 50% inhibitory concentration (IC50) was 0.09 µM.

`COc1cc2ncnc(Sc3cccc(NC(=S)Nc4cccc(C(F)(F)F)c4)c3)c2cc1OC` [Compound 10p, 1-(3-Trifluoromethylphenyl)-3-[3-(6,7-dimethoxyquinazolin-4-ylsulfanyl)phenyl]thiourea] had a melting point of 127.5 to 131 °C. This compound also gave an IC50 in data set [1] of 9.03 µM. This compound also registered an IC50 in data set [2] of 21 µM. Also, in data set [3], the IC50 came to 12.9 µM. Moreover, the 50% inhibitory concentration (IC50) in data set [4] was determined as 0.07 µM. Besides, the IC50 in data set [5] is 0.27 µM.

Consider `COc1cc2ncnc(Sc3cccc(NC(=S)Nc4ccc(Cl)cc4Cl)c3)c2cc1OC` [Compound 10r, 1-(2,4-Dichlorophenyl)-3-[3-(6,7-dimethoxyquinazolin-4-ylsulfanyl)phenyl]thiourea], for which the melting point was 172.4 to 174 °C. It took 63.1 µM to reach half-maximal inhibition in data set [1] (IC50). The same compound registered an IC50 in data set [2] of 14.8 µM. The same compound had an IC50 in data set [3] of 27.4 µM. In addition, the IC50 in data set [4] was 3.56 µM. For the same compound, the half-inhibitory concentration (IC50) in data set [5] was greater than 10 µM.

Regarding `COc1cc2ncnc(Sc3cccc(NC(=S)Nc4ccc(F)c(F)c4)c3)c2cc1OC` [Compound 10s, 1-(3,4-Difluorophenyl)-3-[3-(6,7-dimethoxyquinazolin-4-ylsulfanyl)phenyl]thiourea], the melting point lay within 128.2 to 130.4 °C. The IC50 in data set [1] was greater than 100 µM. The same compound came in with a half-inhibitory concentration (IC50) in data set [2] of 30.5 µM. In data set [3], this compound registered a concentration for half-maximal inhibition (IC50) of 42.2 µM. Besides, the half-inhibitory concentration (IC50) in data set [4] was 3.17 µM. Also, the half-inhibitory concentration (IC50) in data set [5] amounted to 5.14 µM.

In turn, `COc1cc2ncnc(Sc3cccc(NC(=S)Nc4ccc(Cl)cc4)c3)c2cc1OC` [Compound 10t, 1-(4-Chlorophenyl)-3-[3-(6,7-dimethoxyquinazolin-4-ylsulfanyl)phenyl]thiourea] gave a melting point of 124.8 to 126.1 °C. This compound also returned a half-inhibitory concentration (IC50) in data set [1] of 23.1 µM. In addition, in data set [2], the concentration for half-maximal inhibition (IC50) came to 26.4 µM. In data set [3], this compound came in with an IC50 of 57.6 µM. Besides, the half-maximal inhibitory concentration (IC50) in data set [4] turned out to be 2.86 µM. For the same compound, the IC50 in data set [5] amounted to 6.93 µM.

For `COc1cc2ncnc(Sc3cccc(NC(=S)Nc4ccc(F)cc4)c3)c2cc1OC` [Compound 10u, 1-(4-Fluorophenyl)-3-[3-(6,7-dimethoxyquinazolin-4-ylsulfanyl)phenyl]thiourea], the melting point fell in the range of 152 to 153.2 °C. For the same compound, the concentration for half-maximal inhibition (IC50) in data set [1] was determined as 27.3 µM. In data set [2], this compound gave an IC50 of 21.3 µM. In data set [3], this compound yielded a 50% inhibitory concentration (IC50) of 61.2 µM. Further, the half-inhibitory concentration (IC50) in data set [4] worked out at 5.35 µM. Moreover, the IC50 in data set [5] was 6.62 µM.

With `COc1cc2ncnc(Sc3cccc(NC(=S)Nc4ccc(C)cc4)c3)c2cc1OC` [Compound 10v, 1-p-tolyl-3-[3-(6,7-dimethoxyquinazolin-4-ylsulfanyl)phenyl]thiourea], the melting point was 163.1 to 165 °C. In data set [1], this compound had a 50% inhibitory concentration (IC50) of 83.2 µM. The same compound registered an IC50 in data set [2] of 28.9 µM. The compound also came in with an IC50 in data set [3] greater than 100 µM. Also, in data set [4], the IC50 was greater than 10 µM. Also, the IC50 in data set [5] was greater than 10 µM.

As a reminder, the IC50 is the midpoint of a concentration-inhibition curve. Usually melting point stands for the temperature of the solid-liquid transition.

These data come from paper PMC5943947 (Molecules : A Journal of Synthetic Chemistry and Natural …, 2017).
